From ChEMBL document CHEMBL3046635, “Synthesis and Herbicidal Activity of New Pyrazole-4-carboxamide Derivatives” (J Pestic Sci, 2004)
Calls of active or inactive are those of the source.

Tested on: Oryza sativa
Experiment: Phytotoxicity against Oryza sativa cv. Koshihikari (rice) at 500 g a.i/ha measured after 14 days
Type: organism-based
Details: in vivo, 336 h

SMILES | Activity
Cn1nc(OCc2cccc(C(F)(F)F)c2)c(C(=O)NOc2ccc(F)cc2F)c1Cl | Non-toxic
CCCn1cc(C(=O)NOCC)c(OCc2cccc(C(F)(F)F)c2)n1 | Non-toxic

Tested on: Elatine triandra
Experiment: Post-emergence herbicidal activity against Elatine triandra assessed as bleaching of stem/leaf parts; also: test concentration or dose not given here
Type: functional, organism-based
Details: not given

SMILES | Activity
Cn1nc(OCc2cccc(C(F)(F)F)c2)c(C(=O)NOc2ccc(F)cc2F)c1Cl | Active
CCCn1cc(C(=O)NOCC)c(OCc2cccc(C(F)(F)F)c2)n1 | Active

Tested on: Echinochloa oryzicola
Experiment: Pre-emergence herbicidal activity against Echinochloa oryzicola at 500 g a.i/ha measured after 14 days
Type: functional, organism-based
Details: not given

SMILES | Activity
Cn1nc(OCc2cccc(C(F)(F)F)c2)c(C(=O)NOc2ccc(F)cc2F)c1Cl | inactive
CCCn1cc(C(=O)NOCC)c(OCc2cccc(C(F)(F)F)c2)n1 | inactive

Tested on: Pontederia vaginalis
Experiment: Pre-emergence herbicidal activity against Monochoria vaginalis at 500 g a.i/ha measured after 14 days
Type: functional, organism-based
Details: not given

SMILES | Activity
Cn1nc(OCc2cccc(C(F)(F)F)c2)c(C(=O)NOc2ccc(F)cc2F)c1Cl | inactive
CCCn1cc(C(=O)NOCC)c(OCc2cccc(C(F)(F)F)c2)n1 | inactive

Tested on: Ammannia multiflora
Experiment: Pre-emergence herbicidal activity against Ammannia multiflora at 500 g a.i/ha measured after 14 days
Type: functional, organism-based
Details: not given

SMILES | Activity
Cn1nc(OCc2cccc(C(F)(F)F)c2)c(C(=O)NOc2ccc(F)cc2F)c1Cl | inactive
CCCn1cc(C(=O)NOCC)c(OCc2cccc(C(F)(F)F)c2)n1 | inactive

Tested on: Eleocharis acicularis
Experiment: Post-emergence herbicidal activity against Eleocharis acicularis assessed as bleaching of stem/leaf parts; also: test concentration or dose not given here
Type: functional, organism-based
Details: not given

SMILES | Activity
Cn1nc(OCc2cccc(C(F)(F)F)c2)c(C(=O)NOc2ccc(F)cc2F)c1Cl | Active
CCCn1cc(C(=O)NOCC)c(OCc2cccc(C(F)(F)F)c2)n1 | Active

Tested on: Echinochloa oryzicola
Experiment: Pre-emergence herbicidal activity against Echinochloa oryzicola assessed as bleaching of stem/leaf parts
Type: functional, organism-based
Details: not given

SMILES | Activity
Cn1nc(OCc2cccc(C(F)(F)F)c2)c(C(=O)NOc2ccc(F)cc2F)c1Cl | Active
CCCn1cc(C(=O)NOCC)c(OCc2cccc(C(F)(F)F)c2)n1 | Active

Tested on: Cyperus difformis
Experiment: Pre-emergence herbicidal activity against Cyperus difformis at 500 g a.i/ha measured after 14 days
Type: functional, organism-based
Details: not given

SMILES | Activity
Cn1nc(OCc2cccc(C(F)(F)F)c2)c(C(=O)NOc2ccc(F)cc2F)c1Cl | inactive
CCCn1cc(C(=O)NOCC)c(OCc2cccc(C(F)(F)F)c2)n1 | inactive

Tested on: Rotala indica
Experiment: Post-emergence herbicidal activity against Rotala indica assessed as bleaching of stem/leaf parts; also: test concentration or dose not given here
Type: functional, organism-based
Details: not given

SMILES | Activity
Cn1nc(OCc2cccc(C(F)(F)F)c2)c(C(=O)NOc2ccc(F)cc2F)c1Cl | Active
CCCn1cc(C(=O)NOCC)c(OCc2cccc(C(F)(F)F)c2)n1 | Active

Tested on: Schoenoplectiella juncoides
Experiment: Pre-emergence herbicidal activity against Schoenoplectiella juncoides at 500 g a.i/ha measured after 14 days
Type: functional, organism-based
Details: not given

SMILES | Activity
Cn1nc(OCc2cccc(C(F)(F)F)c2)c(C(=O)NOc2ccc(F)cc2F)c1Cl | inactive
CCCn1cc(C(=O)NOCC)c(OCc2cccc(C(F)(F)F)c2)n1 | inactive

Tested on: Elatine triandra
Experiment: Pre-emergence herbicidal activity against Elatine triandra at 500 g a.i/ha measured after 14 days
Type: functional, organism-based
Details: not given

SMILES | Activity
Cn1nc(OCc2cccc(C(F)(F)F)c2)c(C(=O)NOc2ccc(F)cc2F)c1Cl | inactive
CCCn1cc(C(=O)NOCC)c(OCc2cccc(C(F)(F)F)c2)n1 | inactive

Tested on: Echinochloa oryzicola
Experiment: Post-emergence herbicidal activity against Echinochloa oryzicola assessed as bleaching of stem/leaf parts; also: test concentration or dose not given here
Type: functional, organism-based
Details: not given

SMILES | Activity
Cn1nc(OCc2cccc(C(F)(F)F)c2)c(C(=O)NOc2ccc(F)cc2F)c1Cl | Active
CCCn1cc(C(=O)NOCC)c(OCc2cccc(C(F)(F)F)c2)n1 | Active

Tested on: Cyperus difformis
Experiment: Pre-emergence herbicidal activity against Cyperus difformis assessed as bleaching of stem/leaf parts
Type: functional, organism-based
Details: not given

SMILES | Activity
Cn1nc(OCc2cccc(C(F)(F)F)c2)c(C(=O)NOc2ccc(F)cc2F)c1Cl | Active
CCCn1cc(C(=O)NOCC)c(OCc2cccc(C(F)(F)F)c2)n1 | Active

Tested on: Schoenoplectiella juncoides
Experiment: Pre-emergence herbicidal activity against Schoenoplectiella juncoides assessed as bleaching of stem/leaf parts
Type: functional, organism-based
Details: not given

SMILES | Activity
Cn1nc(OCc2cccc(C(F)(F)F)c2)c(C(=O)NOc2ccc(F)cc2F)c1Cl | Active
CCCn1cc(C(=O)NOCC)c(OCc2cccc(C(F)(F)F)c2)n1 | Active

Tested on: Rotala indica
Experiment: Pre-emergence herbicidal activity against Rotala indica assessed as bleaching of stem/leaf parts
Type: functional, organism-based
Details: not given

SMILES | Activity
Cn1nc(OCc2cccc(C(F)(F)F)c2)c(C(=O)NOc2ccc(F)cc2F)c1Cl | Active
CCCn1cc(C(=O)NOCC)c(OCc2cccc(C(F)(F)F)c2)n1 | Active

Tested on: Lindernia procumbens
Experiment: Pre-emergence herbicidal activity against Lindernia procumbens at 500 g a.i/ha measured after 14 days
Type: functional, organism-based
Details: not given

SMILES | Activity
Cn1nc(OCc2cccc(C(F)(F)F)c2)c(C(=O)NOc2ccc(F)cc2F)c1Cl | inactive
CCCn1cc(C(=O)NOCC)c(OCc2cccc(C(F)(F)F)c2)n1 | inactive

Tested on: Eleocharis acicularis
Experiment: Pre-emergence herbicidal activity against Eleocharis acicularis assessed as bleaching of stem/leaf parts
Type: functional, organism-based
Details: not given

SMILES | Activity
Cn1nc(OCc2cccc(C(F)(F)F)c2)c(C(=O)NOc2ccc(F)cc2F)c1Cl | Active
CCCn1cc(C(=O)NOCC)c(OCc2cccc(C(F)(F)F)c2)n1 | Active

Tested on: Eleocharis acicularis
Experiment: Pre-emergence herbicidal activity against Eleocharis acicularis at 500 g a.i/ha measured after 14 days
Type: functional, organism-based
Details: not given

SMILES | Activity
Cn1nc(OCc2cccc(C(F)(F)F)c2)c(C(=O)NOc2ccc(F)cc2F)c1Cl | inactive
CCCn1cc(C(=O)NOCC)c(OCc2cccc(C(F)(F)F)c2)n1 | inactive

Tested on: Lindernia procumbens
Experiment: Pre-emergence herbicidal activity against Lindernia procumbens assessed as bleaching of stem/leaf parts
Type: functional, organism-based
Details: not given

SMILES | Activity
Cn1nc(OCc2cccc(C(F)(F)F)c2)c(C(=O)NOc2ccc(F)cc2F)c1Cl | Active
CCCn1cc(C(=O)NOCC)c(OCc2cccc(C(F)(F)F)c2)n1 | Active

Tested on: Schoenoplectiella juncoides
Experiment: Post-emergence herbicidal activity against Schoenoplectiella juncoides assessed as bleaching of stem/leaf parts; also: test concentration or dose not given here
Type: functional, organism-based
Details: not given

SMILES | Activity
Cn1nc(OCc2cccc(C(F)(F)F)c2)c(C(=O)NOc2ccc(F)cc2F)c1Cl | Active
CCCn1cc(C(=O)NOCC)c(OCc2cccc(C(F)(F)F)c2)n1 | Active

Tested on: Ammannia multiflora
Experiment: Post-emergence herbicidal activity against Ammannia multiflora assessed as bleaching of stem/leaf parts; also: test concentration or dose not given here
Type: functional, organism-based
Details: not given

SMILES | Activity
Cn1nc(OCc2cccc(C(F)(F)F)c2)c(C(=O)NOc2ccc(F)cc2F)c1Cl | Active
CCCn1cc(C(=O)NOCC)c(OCc2cccc(C(F)(F)F)c2)n1 | Active

Tested on: Lindernia procumbens
Experiment: Post-emergence herbicidal activity against Lindernia procumbens assessed as bleaching of stem/leaf parts; also: test concentration or dose not given here
Type: functional, organism-based
Details: not given

SMILES | Activity
Cn1nc(OCc2cccc(C(F)(F)F)c2)c(C(=O)NOc2ccc(F)cc2F)c1Cl | Active
CCCn1cc(C(=O)NOCC)c(OCc2cccc(C(F)(F)F)c2)n1 | Active

Tested on: Rotala indica
Experiment: Pre-emergence herbicidal activity against Rotala indica at 500 g a.i/ha measured after 14 days
Type: functional, organism-based
Details: not given

SMILES | Activity
Cn1nc(OCc2cccc(C(F)(F)F)c2)c(C(=O)NOc2ccc(F)cc2F)c1Cl | inactive
CCCn1cc(C(=O)NOCC)c(OCc2cccc(C(F)(F)F)c2)n1 | inactive

Tested on: Cyperus difformis
Experiment: Post-emergence herbicidal activity against Cyperus difformis assessed as bleaching of stem/leaf parts; also: test concentration or dose not given here
Type: functional, organism-based
Details: not given

SMILES | Activity
Cn1nc(OCc2cccc(C(F)(F)F)c2)c(C(=O)NOc2ccc(F)cc2F)c1Cl | Active
CCCn1cc(C(=O)NOCC)c(OCc2cccc(C(F)(F)F)c2)n1 | Active

Tested on: Ammannia multiflora
Experiment: Pre-emergence herbicidal activity against Ammannia multiflora assessed as bleaching of stem/leaf parts
Type: functional, organism-based
Details: not given

SMILES | Activity
Cn1nc(OCc2cccc(C(F)(F)F)c2)c(C(=O)NOc2ccc(F)cc2F)c1Cl | Active
CCCn1cc(C(=O)NOCC)c(OCc2cccc(C(F)(F)F)c2)n1 | Active

Tested on: Pontederia vaginalis
Experiment: Post-emergence herbicidal activity against Monochoria vaginalis assessed as bleaching of stem/leaf parts; also: test concentration or dose not given here
Type: functional, organism-based
Details: not given

SMILES | Activity
Cn1nc(OCc2cccc(C(F)(F)F)c2)c(C(=O)NOc2ccc(F)cc2F)c1Cl | Active
CCCn1cc(C(=O)NOCC)c(OCc2cccc(C(F)(F)F)c2)n1 | Active

Tested on: Elatine triandra
Experiment: Pre-emergence herbicidal activity against Elatine triandra assessed as bleaching of stem/leaf parts
Type: functional, organism-based
Details: not given

SMILES | Activity
Cn1nc(OCc2cccc(C(F)(F)F)c2)c(C(=O)NOc2ccc(F)cc2F)c1Cl | Active
CCCn1cc(C(=O)NOCC)c(OCc2cccc(C(F)(F)F)c2)n1 | Active

Tested on: Pontederia vaginalis
Experiment: Pre-emergence herbicidal activity against Monochoria vaginalis assessed as bleaching of stem/leaf parts
Type: functional, organism-based
Details: not given

SMILES | Activity
Cn1nc(OCc2cccc(C(F)(F)F)c2)c(C(=O)NOc2ccc(F)cc2F)c1Cl | Active
CCCn1cc(C(=O)NOCC)c(OCc2cccc(C(F)(F)F)c2)n1 | Active
